Source: ChEMBL document CHEMBL1201862, “PubChem BioAssay data set” (2004)
The source made the active and inactive calls.

Columns and labels:
[1] = HepG2 cell cytotoxicity, dose response, cytotoxicity control, ATP luminescence, cherry-pick, activator set 2 (AID 1053143); assay type: functional, cell-based
[2] = target: T1, Small ubiquitin-related modifier 1 (Homo sapiens, UniProt P63165); experiment: inhibitors of SUMO1 peptide binding, dose response, biochemical, fluorescence polarization, uHTS hits (AID 624382); assay type: functional; conditions: read-out: IC50_Mean
T1 sequence (P63165 whole entry): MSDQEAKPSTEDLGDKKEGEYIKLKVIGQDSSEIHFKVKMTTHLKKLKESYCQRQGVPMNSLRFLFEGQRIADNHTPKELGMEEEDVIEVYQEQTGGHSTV

[3] = target: T2, Probable nicotinate-nucleotide adenylyltransferase (Staphylococcus aureus (strain N315), UniProt P65502); assay type: functional, Staphylococcus aureus subsp. aureus N315;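 as to IC50 Mean: confirmatory dose-response retesting of NadD inhibitor hits first found in an ultra-high-throughput screen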
T2 sequence (P65502 whole entry): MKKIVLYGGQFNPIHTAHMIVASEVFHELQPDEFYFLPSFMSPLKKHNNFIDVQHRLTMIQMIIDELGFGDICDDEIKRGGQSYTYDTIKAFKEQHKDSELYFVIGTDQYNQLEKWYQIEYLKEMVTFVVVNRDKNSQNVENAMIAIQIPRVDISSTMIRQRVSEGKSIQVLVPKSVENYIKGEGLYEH

[4] = target: T2, Probable nicotinate-nucleotide adenylyltransferase; assay type: functional, Staphylococcus aureus subsp. aureus N315; conditions: read-out: IC50_Mean
[5] = target: T1, Small ubiquitin-related modifier 1; experiment: inhibitors of SUMO1 partner interactions, dose response, biochemical, FRET (AID 624383); assay type: functional; conditions: read-out: IC50_Mean
[6] = target: Intestinal-type alkaline phosphatase (Mus musculus, UniProt P24822); experiment: PubChem AID 488785; assay type: functional
Intestinal-type alkaline phosphatase (Mus musculus, UniProt P24822), sequence (P24822 whole entry): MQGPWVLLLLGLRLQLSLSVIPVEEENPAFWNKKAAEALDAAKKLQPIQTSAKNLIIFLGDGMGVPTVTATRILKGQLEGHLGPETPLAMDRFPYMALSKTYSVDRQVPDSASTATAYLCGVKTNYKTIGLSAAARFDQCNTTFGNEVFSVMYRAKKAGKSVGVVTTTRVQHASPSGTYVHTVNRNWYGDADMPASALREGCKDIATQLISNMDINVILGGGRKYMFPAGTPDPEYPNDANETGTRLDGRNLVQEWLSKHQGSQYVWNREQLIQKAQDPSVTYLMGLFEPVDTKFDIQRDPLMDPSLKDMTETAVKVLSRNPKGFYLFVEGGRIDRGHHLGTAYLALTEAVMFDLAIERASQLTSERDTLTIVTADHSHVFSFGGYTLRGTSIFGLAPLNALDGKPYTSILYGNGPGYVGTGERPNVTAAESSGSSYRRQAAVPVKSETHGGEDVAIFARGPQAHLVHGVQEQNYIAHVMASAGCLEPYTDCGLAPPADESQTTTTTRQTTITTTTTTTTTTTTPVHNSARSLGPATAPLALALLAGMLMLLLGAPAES

[7] = target: T3, Alkaline phosphatase, tissue-nonspecific isozyme (Homo sapiens, UniProt P05186); experiment: TNAP enzyme inhibition by screening hits, dose response, selectivity assay for mouse IAP inhibitor project, biochemical, human TNAP, uHTS hits (AID 488906); assay type: functional
T3 sequence (P05186 whole entry): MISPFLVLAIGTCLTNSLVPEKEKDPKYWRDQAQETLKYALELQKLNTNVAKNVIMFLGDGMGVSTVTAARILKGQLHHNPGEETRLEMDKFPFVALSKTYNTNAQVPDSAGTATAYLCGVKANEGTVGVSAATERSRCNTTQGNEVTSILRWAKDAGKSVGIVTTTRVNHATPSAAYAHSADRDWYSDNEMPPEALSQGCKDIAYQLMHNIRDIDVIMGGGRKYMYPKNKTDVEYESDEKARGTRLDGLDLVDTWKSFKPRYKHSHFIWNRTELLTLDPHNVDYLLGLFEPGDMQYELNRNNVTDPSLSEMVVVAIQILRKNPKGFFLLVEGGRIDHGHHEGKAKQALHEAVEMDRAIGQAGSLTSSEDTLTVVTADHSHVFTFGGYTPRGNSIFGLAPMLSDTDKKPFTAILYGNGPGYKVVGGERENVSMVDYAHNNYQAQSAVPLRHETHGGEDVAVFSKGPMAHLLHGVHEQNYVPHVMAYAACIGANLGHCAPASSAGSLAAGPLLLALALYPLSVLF

[8] = target: Intestinal-type alkaline phosphatase (Homo sapiens, UniProt P09923); experiment: inhibition of human intestinal alkaline phosphatase – biochemical, dose response (AID 488876); assay type: functional
Intestinal-type alkaline phosphatase (Homo sapiens, UniProt P09923), sequence (P09923 whole entry): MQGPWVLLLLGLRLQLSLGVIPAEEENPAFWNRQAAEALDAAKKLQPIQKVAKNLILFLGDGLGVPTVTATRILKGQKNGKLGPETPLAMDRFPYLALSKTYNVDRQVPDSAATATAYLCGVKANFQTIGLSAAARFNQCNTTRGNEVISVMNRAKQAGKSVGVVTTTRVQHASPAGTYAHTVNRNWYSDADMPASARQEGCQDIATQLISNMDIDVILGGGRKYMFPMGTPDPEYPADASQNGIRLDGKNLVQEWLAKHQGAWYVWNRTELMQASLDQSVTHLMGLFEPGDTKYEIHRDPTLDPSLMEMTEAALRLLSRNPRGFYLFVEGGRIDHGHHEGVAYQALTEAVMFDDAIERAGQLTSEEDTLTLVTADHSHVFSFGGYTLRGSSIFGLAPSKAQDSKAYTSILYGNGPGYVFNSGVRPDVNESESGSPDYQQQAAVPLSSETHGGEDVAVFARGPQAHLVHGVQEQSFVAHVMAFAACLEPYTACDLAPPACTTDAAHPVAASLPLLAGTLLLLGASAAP

[9] = T. cruzi growth inhibition in host cells, dose response, cell-based, plate reader, dry powder, set 2 (AID 652275); assay type: functional
Paired box protein Pax-8 = Paired box protein Pax-8 (Homo sapiens, UniProt Q06710); experiment: inhibitors of PAX8-driven TPO luciferase reporter, dose response, RMG-I cells, cherry-pick (AID 687027); assay type: functional, cell-based;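 also: luciferase reporter driven by Pax8 target thyroperoxidase promoter measured by SteadyGlo luminescence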
Paired box protein Pax-8, sequence (Q06710 whole entry): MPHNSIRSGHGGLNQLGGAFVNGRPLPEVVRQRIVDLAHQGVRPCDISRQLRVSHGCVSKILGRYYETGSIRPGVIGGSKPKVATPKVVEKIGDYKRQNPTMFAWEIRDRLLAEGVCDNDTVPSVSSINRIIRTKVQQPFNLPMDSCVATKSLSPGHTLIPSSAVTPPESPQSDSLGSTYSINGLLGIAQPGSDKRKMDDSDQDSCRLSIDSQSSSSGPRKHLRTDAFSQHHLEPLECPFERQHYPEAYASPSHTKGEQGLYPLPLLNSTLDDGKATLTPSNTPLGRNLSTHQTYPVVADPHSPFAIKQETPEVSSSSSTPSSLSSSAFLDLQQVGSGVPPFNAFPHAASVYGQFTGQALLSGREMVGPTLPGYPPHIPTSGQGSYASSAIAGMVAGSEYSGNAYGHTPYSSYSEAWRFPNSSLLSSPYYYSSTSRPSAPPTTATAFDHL

[10] = NIH:OVCAR-3 ovarian cancer cell cytotoxicity, dose response, PAX8 inhibitor project, plate reader, dry powder samples (AID 743044); assay type: functional, cell-based
[11] = cytotoxicity in OVCAR8 ovarian cancer cells, dose response, PAX8 project, cell-based, plate reader, dry powder samples (AID 743197); assay type: functional; conditions: OVCAR-8
[12] = target: T4, Long-chain-fatty-acid--AMP ligase FadD28 (Mycobacterium tuberculosis, UniProt P9WQ59); experiment: Fluorescence polarization aasay to screen for inhibitors that compete for the binding of FadD28 to a bisubstrate Measured in Biochemical System Using Plate Reader - 2147-01_Inhibitor_Dose_CherryPick_Activity.; assay type: functional, Mycobacterium tuberculosis H37Rv
T4 sequence (P9WQ59 whole entry): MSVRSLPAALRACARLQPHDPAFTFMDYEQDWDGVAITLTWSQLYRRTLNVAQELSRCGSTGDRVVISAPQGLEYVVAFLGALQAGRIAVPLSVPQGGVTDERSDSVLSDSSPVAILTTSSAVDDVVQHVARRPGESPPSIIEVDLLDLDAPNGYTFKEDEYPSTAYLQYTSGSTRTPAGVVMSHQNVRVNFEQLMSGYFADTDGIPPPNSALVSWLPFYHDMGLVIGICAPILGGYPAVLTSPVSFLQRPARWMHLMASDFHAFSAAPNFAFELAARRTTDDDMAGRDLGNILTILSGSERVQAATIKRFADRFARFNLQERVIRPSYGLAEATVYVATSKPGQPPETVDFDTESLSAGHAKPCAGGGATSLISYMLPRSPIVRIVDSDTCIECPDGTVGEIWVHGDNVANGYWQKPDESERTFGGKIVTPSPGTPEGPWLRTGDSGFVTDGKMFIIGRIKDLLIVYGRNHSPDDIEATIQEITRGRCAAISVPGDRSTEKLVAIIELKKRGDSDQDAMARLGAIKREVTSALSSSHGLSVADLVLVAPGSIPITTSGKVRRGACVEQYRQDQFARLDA

[13] = P. falciparum 3D7-ScDHODH growth inhibitors, dose response, SYBR Green, dry powder samples (AID 1159570); assay type: functional, cell-based;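 also: parasite growth measured after 72 hours of compound exposure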
[14] = HepG2 cell cytotoxicity, dose response, cytotoxicity control, plate reader, dry powder samples (AID 1159569); assay type: functional, cell-based;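 also: inhibitor potency with signal falling toward the positive control level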
[15] = P. falciparum Dd2 growth inhibitors, dose response, SYBR Green, cherry-picked samples (AID 1159567); assay type: functional, cell-based
[16] = P. falciparum Dd2 growth inhibitors, dose response, SYBR Green, dry powder samples (AID 1159566); assay type: functional, cell-based;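 also: potency for growth inhibition with lower SYBR green DNA signal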
[17] = P. falciparum ATP4 D1247Y mutant growth inhibitors, dose response, NITD609-resistant line, SYBR Green, dry powder (AID 1159571); assay type: functional, cell-based;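 also: parasites synchronized at ring stage by sorbitol before testing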
[18] = target: T5, Endoribonuclease toxin MazF (Escherichia coli K-12, UniProt P0AE70); experiment: MazF toxin RNase activators, dose response, biochemical, fluorescence, single-stranded RNA substrate, uHTS hits (AID 588481); assay type: functional
T5 sequence (P0AE70 whole entry): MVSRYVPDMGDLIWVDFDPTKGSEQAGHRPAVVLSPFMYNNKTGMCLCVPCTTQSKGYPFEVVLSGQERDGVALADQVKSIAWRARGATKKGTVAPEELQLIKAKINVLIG

[19] = target: T5, Endoribonuclease toxin MazF; experiment: fluorescent RNA oligo signal without MazF, dose response, counter-screen for MazEF activator project, biochemical, fluorescence, single-stranded RNase substrate (AID 588502); assay type: functional
[20] = AlphaScreen signal interference compounds, dose response, artefact control for ARNT-TACC3 interaction inhibitor project, biochemical, luminescence, cherry-pick (AID 651705); assay type: functional;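 also: AlphaScreen bead proximity signal that flags compounds interfering with the detection technology; potency reflects signal decrease which marks the compound as an assay artifact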

With `Cc1ccc(NC(=O)Nc2ccc(F)c(Cl)c2)cc1` the AC50 [1] was 33.1 µM (active).
For `CC(C)C[C@@H](CNCC(=O)[C@H](CC(=O)O)NC(=O)c1nc[nH]c1C(=O)N[C@H](CN)CC(C)C)NC(=O)c1[nH]cnc1C(=O)N[C@@H](Cc1ccccc1)C(=O)O`, the IC50 [2] was 50.1 µM (inactive), the IC50 [3] was 12.4 µM (active) and the IC50 [4] was 44 µM (active). The IC50 [5] was 5.92 µM (active).
For `CCOc1ccccc1CNC(=O)CCNS(=O)(=O)c1ccc2nc(O)oc2c1`, the IC50 [6] was 2.65 µM (active), the IC50 [7] was 22.7 µM (active) and the IC50 [8] was > 100 µM (inactive).
With `C[C@@H]1CCCCO[C@H](CN(C)Cc2ccc(Cl)c(Cl)c2)[C@@H](C)CN([C@H](C)CO)C(=O)c2cc(N(C)C)ccc2O1` the AC50 [9] was 2.73 µM (active).
In the case of `C[C@@H]1CN([C@H](C)CO)C(=O)c2cc(NC(=O)Nc3ccc(C(F)(F)F)cc3)ccc2O[C@@H](C)CCCCO[C@@H]1CN(C)C(=O)c1ccccc1`, the AC50 (Paired box protein Pax-8) is reported as 5.42 µM (active), the AC50 [10] is reported as 7.17 µM (active) and the AC50 [11] is reported as > 70 µM (inactive).
For `CC(C)N1CC2(CN(Cc3ccc(F)cc3)C2)Oc2c(NC(=O)c3ccncc3)cccc2C1=O`, the AC50 [9] was 0.876 µM (active).
For `COCCn1c(C)cc(/C=N/NC(=O)c2cc3ccccc3cc2O)c1C`, the AC50 [12] was 17.4 µM (active).
In the case of `Cn1/c(=N\C(=O)c2ccco2)sc2cccc(F)c21`, the AC50 [1] is reported as 25.3 µM (active).
In the case of `C[C@H](CO)N1C[C@H](C)[C@@H](CN(C)C(=O)Nc2ccc3c(c2)OCO3)Oc2ccc(NC(=O)Nc3ccc(C(F)(F)F)cc3)cc2CC1=O`, the AC50 [13] is reported as 0.406 µM (active), the AC50 [14] is reported as > 100 µM (inactive) and the AC50 [15] is reported as 0.748 µM (active). For the same molecule, the AC50 [16] was 0.276 µM (active) and the AC50 [17] was 0.238 µM (active).
For `C#CCN1c2ccccc2Sc2cccnc21`, the EC50 [18] was > 99 µM (inactive) and the EC50 [19] was 85.6 µM (inactive).
In the case of `NCCc1c[nH]cn1` [HISTAMINE], the AC50 [20] is reported as 106 µM (active).
